Reference: ChEMBL document CHEMBL1201862, “PubChem BioAssay data set” (2004)
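Assay format: 96-well plates, 48-hour exposure. GI50: concentration for 50% inhibition of growth.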 Active and inactive are the calls of the source. No stated cut-off is given here; in the data, active = GI50 up to about 1.1 µM and inactive = higher.

Columns and labels:
Assay in all cases: inhibition of tumour cell growth, NCI panel, 48 h
TK-10 = system: TK-10
UO-31 = system: UO-31
SK-MEL-5 = system: SK-MEL-5
Malme-3M = system: Malme-3M
HL-60 = system: HL-60
SF-539 = system: SF-539
SK-MEL-28 = system: SK-MEL-28
SK-MEL-2 = system: SK-MEL-2
A549 = system: A549
MOLT-4 = system: MOLT-4
OVCAR-5 = system: OVCAR-5
U-251 = system: U-251
DLD-1 = system: DLD-1
EKVX = system: EKVX
SNB-75 = system: SNB-75
CCRF-CEM = system: CCRF-CEM
HCT-15 = system: HCT-15
LXFL 529 = system: LXFL 529
NCI-H460 = system: NCI-H460
OVCAR-8 = system: OVCAR-8
HT-29 = system: HT-29
SW-620 = system: SW-620
NCI-H23 = system: NCI-H23
HOP-92 = system: HOP-92
RPMI-8226 = system: RPMI-8226
LOX IMVI = system: LOX IMVI
SN12C = system: SN12C
HOP-18 = system: HOP-18
KM-20L2 = system: KM-20L2
HCC 2998 = system: HCC 2998
KM12 = system: KM12
UACC-62 = system: UACC-62
SNB-19 = system: SNB-19
UACC-257 = system: UACC-257
SK-OV-3 = system: SK-OV-3
K562 = system: K562
M14 = system: M14
NCI-H522 = system: NCI-H522
M19-MEL = system: M19-MEL
786-0 = system: 786-0
A498 = system: A498
SR = system: SR
RXF 393 = system: RXF 393
ACHN = system: ACHN
XF498 = system: XF498
SF-295 = system: SF-295
OVCAR-3 = system: OVCAR-3
SF-268 = system: SF-268
HCT-116 = system: HCT-116
IGROV-1 = system: IGROV-1
COLO 205 = system: COLO 205
OVCAR-4 = system: OVCAR-4
CAKI-1 = system: CAKI-1
SNB-78 = system: SNB-78
DMS-273 = system: DMS-273
DMS-114 = system: DMS-114
NCI-H226 = system: NCI-H226
HOP-62 = system: HOP-62

CCCCCCCCCCCCN(O)C(=O)c1ccccc1
GI50 (TK-10): 46.5 µM (inactive)
GI50 (UO-31): 24.3 µM (inactive)
GI50 (SK-MEL-5): > 10 µM (inactive)
GI50 (Malme-3M): 17.5 µM (inactive)
GI50 (HL-60): 19.1 µM (inactive)
GI50 (SF-539): 20.6 µM (inactive)
GI50 (SK-MEL-28): 36.8 µM (inactive)
GI50 (SK-MEL-2): 47 µM (inactive)
GI50 (A549): 24.4 µM (inactive)
GI50 (MOLT-4): 6.44 µM (inactive)
GI50 (OVCAR-5): 21.5 µM (inactive)
GI50 (U-251): 11.8 µM (inactive)
GI50 (DLD-1): 26.4 µM (inactive)
GI50 (EKVX): 25.9 µM (inactive)
GI50 (SNB-75): 22.9 µM (inactive)
GI50 (CCRF-CEM): 3.82 µM (inactive)
GI50 (HCT-15): 9.64 µM
GI50 (LXFL 529): 30.5 µM (inactive)
GI50 (NCI-H460): > 10 µM (inactive)
GI50 (OVCAR-8): 18.9 µM (inactive)
GI50 (HT-29): 39.4 µM (inactive)
GI50 (SW-620): 34 µM (inactive)
GI50 (NCI-H23): 14.9 µM (inactive)
GI50 (HOP-92): 17.7 µM (inactive)
GI50 (RPMI-8226): 15.1 µM (inactive)
GI50 (LOX IMVI): 20.5 µM (inactive)
GI50 (SN12C): 17.1 µM (inactive)
GI50 (HOP-18): 62.1 µM (inactive)
GI50 (KM-20L2): 36.2 µM (inactive)
GI50 (HCC 2998): 30.3 µM (inactive)
GI50 (KM12): 38 µM (inactive)
GI50 (UACC-62): 19.7 µM (inactive)
GI50 (SNB-19): 42.6 µM (inactive)
GI50 (UACC-257): 18.8 µM (inactive)
GI50 (SK-OV-3): 43.1 µM (inactive)
GI50 (K562): 18.9 µM (inactive)
GI50 (M14): 21.2 µM (inactive)
GI50 (NCI-H522): 25.6 µM (inactive)
GI50 (M19-MEL): 37.8 µM (inactive)
GI50 (786-0): 16.9 µM (inactive)
GI50 (A498): 18.8 µM (inactive)
GI50 (SR): 8.26 µM (inactive)
GI50 (RXF 393): 35.2 µM (inactive)
GI50 (ACHN): 28.2 µM (inactive)
GI50 (XF498): 21.6 µM (inactive)
GI50 (SF-295): 29.4 µM (inactive)
GI50 (OVCAR-3): > 100 µM (inactive)
GI50 (SF-268): 15.1 µM (inactive)
GI50 (HCT-116): 42 µM (inactive)
GI50 (IGROV-1): 37.8 µM (inactive)

O=S1(=O)NN=C(NCc2ccc(Cl)c(Cl)c2)c2ccccc21
GI50 (UO-31): > 100 µM (inactive)
GI50 (COLO 205): > 100 µM (inactive)
GI50 (SK-MEL-5): 86.9 µM (inactive)
GI50 (Malme-3M): > 100 µM (inactive)
GI50 (HL-60): 26.5 µM (inactive)
GI50 (SF-539): > 100 µM (inactive)
GI50 (SK-MEL-2): > 100 µM (inactive)
GI50 (A549): > 100 µM (inactive)
GI50 (MOLT-4): 15.1 µM (inactive)
GI50 (OVCAR-5): > 100 µM (inactive)
GI50 (U-251): 30.2 µM (inactive)
GI50 (DLD-1): 56.9 µM (inactive)
GI50 (EKVX): > 100 µM (inactive)
GI50 (OVCAR-4): > 100 µM (inactive)
GI50 (CCRF-CEM): 9.16 µM (inactive)
GI50 (HCT-15): 36 µM
GI50 (LXFL 529): 42.2 µM (inactive)
GI50 (NCI-H460): 95.3 µM (inactive)
GI50 (OVCAR-8): > 100 µM (inactive)
GI50 (HT-29): 53.8 µM (inactive)
GI50 (SW-620): 91.2 µM (inactive)
GI50 (HOP-92): 50.1 µM (inactive)
GI50 (RPMI-8226): 11.5 µM (inactive)
GI50 (CAKI-1): > 100 µM (inactive)
GI50 (LOX IMVI): 40.2 µM (inactive)
GI50 (SN12C): > 100 µM (inactive)
GI50 (SNB-78): 97.5 µM (inactive)
GI50 (DMS-273): > 100 µM (inactive)
GI50 (HOP-18): > 100 µM (inactive)
GI50 (KM-20L2): > 100 µM (inactive)
GI50 (HCC 2998): > 100 µM (inactive)
GI50 (KM12): > 100 µM (inactive)
GI50 (UACC-62): 6.56 µM (inactive)
GI50 (SNB-19): > 100 µM (inactive)
GI50 (UACC-257): > 100 µM (inactive)
GI50 (K562): 12 µM (inactive)
GI50 (M14): > 100 µM (inactive)
GI50 (DMS-114): > 100 µM (inactive)
GI50 (M19-MEL): > 100 µM (inactive)
GI50 (786-0): > 100 µM (inactive)
GI50 (A498): > 100 µM (inactive)
GI50 (SR): 15.6 µM (inactive)
GI50 (RXF 393): 19.8 µM (inactive)
GI50 (ACHN): > 100 µM (inactive)
GI50 (SF-295): > 100 µM (inactive)
GI50 (NCI-H226): > 100 µM (inactive)
GI50 (OVCAR-3): > 100 µM (inactive)
GI50 (SF-268): > 100 µM (inactive)
GI50 (HCT-116): > 100 µM (inactive)
GI50 (IGROV-1): > 100 µM (inactive)

Oc1ncnc2c1CCCN2
GI50 (TK-10): > 100 µM (inactive)
GI50 (UO-31): > 100 µM (inactive)
GI50 (COLO 205): > 100 µM (inactive)
GI50 (SK-MEL-5): > 100 µM (inactive)
GI50 (Malme-3M): > 100 µM (inactive)
GI50 (HL-60): > 100 µM (inactive)
GI50 (SK-MEL-28): > 100 µM (inactive)
GI50 (SK-MEL-2): > 100 µM (inactive)
GI50 (A549): > 100 µM (inactive)
GI50 (HOP-62): > 100 µM (inactive)
GI50 (MOLT-4): > 100 µM (inactive)
GI50 (OVCAR-5): > 100 µM (inactive)
GI50 (U-251): > 100 µM (inactive)
GI50 (DLD-1): > 100 µM (inactive)
GI50 (EKVX): > 100 µM (inactive)
GI50 (SNB-75): > 100 µM (inactive)
GI50 (CCRF-CEM): > 100 µM (inactive)
GI50 (HCT-15): > 100 µM
GI50 (LXFL 529): > 100 µM (inactive)
GI50 (OVCAR-8): > 100 µM (inactive)
GI50 (HT-29): > 100 µM (inactive)
GI50 (SW-620): > 100 µM (inactive)
GI50 (NCI-H23): > 100 µM (inactive)
GI50 (HOP-92): > 100 µM (inactive)
GI50 (RPMI-8226): > 100 µM (inactive)
GI50 (CAKI-1): > 100 µM (inactive)
GI50 (LOX IMVI): > 100 µM (inactive)
GI50 (SN12C): > 100 µM (inactive)
GI50 (SNB-78): > 100 µM (inactive)
GI50 (HOP-18): 16.5 µM (inactive)
GI50 (KM-20L2): > 100 µM (inactive)
GI50 (HCC 2998): > 100 µM (inactive)
GI50 (KM12): > 100 µM (inactive)
GI50 (UACC-62): > 100 µM (inactive)
GI50 (SNB-19): > 100 µM (inactive)
GI50 (UACC-257): > 100 µM (inactive)
GI50 (SK-OV-3): > 100 µM (inactive)
GI50 (K562): > 100 µM (inactive)
GI50 (M14): > 100 µM (inactive)
GI50 (DMS-114): > 100 µM (inactive)
GI50 (NCI-H522): > 100 µM (inactive)
GI50 (M19-MEL): > 100 µM (inactive)
GI50 (786-0): > 100 µM (inactive)
GI50 (SR): > 100 µM (inactive)
GI50 (RXF 393): > 100 µM (inactive)
GI50 (ACHN): > 100 µM (inactive)
GI50 (SF-295): > 100 µM (inactive)
GI50 (OVCAR-3): > 100 µM (inactive)
GI50 (SF-268): > 100 µM (inactive)
GI50 (HCT-116): > 100 µM (inactive)
GI50 (IGROV-1): > 100 µM (inactive)
